Data on 19 compounds can be found in patent US20180340012A1, “METHODS AND CO[…] TO IMPROVING PROPERTIES OF PHARMACOLOGICAL AGENTS TARGETING NERVOUS SYSTEM” (University of Utah Research Foundation, priority 2006, published 2018).

pKd: −log10 of the molar value. Entries after “also recorded” stand apart in the source; their conditions may differ. Like-named read-outs stand apart in the source and are kept apart here. Square brackets hold non-standard residues; d marks the D form. Ends that are not written are not given here. Peptide text beside a SMILES is read from it. * marks the point of attachment. Fmoc = O=C(OCC1c2ccccc2-c2ccccc21)*; Palmitoyl = CCCCCCCCCCCCCCCC(=O)*; Cha = N[C@@H](CC1CCCCC1)C(=O)O; AMC = Cc1cc(=O)oc2cc(N*)ccc12; Ahx = NCCCCCC(=O)O; Sar = CNCC(=O)O Bounds are passed on as bounds.

The target of one data set is galanin receptors. Conditions: truncation of GAL(1-16) fragment; read-out: KD towards galanin receptors; cited from earlier work.
In a further data set the test system is 6 Hz limbic seizures. As to the kind of experiment: 6 Hz limbic (psychomotor) seizure test. The format is in vivo, CF-1 mice. The settings on record: for % Protection at 1 hour: model not printed at tables, ED50s of same analogs called 6 Hz model; for dose in parentheses in Table 14 (ED50): not labelled in table. The text has this:
Mice not displaying limbic seizures were considered protected.

Data set [1] can be described thus: Toxicity (motor impairment) noted in the SAR screen. It is filed as in vivo, mice. Conditions: 4 mg/kg, i.p. The text has this: Minimal toxicity will be identified in mice by the rotarod procedure (Dunham and Miya, 1957). When a mouse is placed on a 1-inch knurled rod that rotates at a speed of 6 r.p.m., the animal can maintain its equilibrium for long periods of time. The animal is considered toxic if it falls off this rotating rod three times during a 1-minute period.
SAR studies have been carried out in an effort to better understand structural determinants of its activity following systemic administration. […] Presence of the Lys-palm residue was insufficient to produce any observable anticonvulsant activity.

The subject of data set [2] is seizures (6 Hz limbic seizure model). Conditions: 4 mg/kg, i.p.
Another data set has as its target T1, hGalR2 (Homo sapiens, UniProt O43603).
T1 sequence (O43603 1-387): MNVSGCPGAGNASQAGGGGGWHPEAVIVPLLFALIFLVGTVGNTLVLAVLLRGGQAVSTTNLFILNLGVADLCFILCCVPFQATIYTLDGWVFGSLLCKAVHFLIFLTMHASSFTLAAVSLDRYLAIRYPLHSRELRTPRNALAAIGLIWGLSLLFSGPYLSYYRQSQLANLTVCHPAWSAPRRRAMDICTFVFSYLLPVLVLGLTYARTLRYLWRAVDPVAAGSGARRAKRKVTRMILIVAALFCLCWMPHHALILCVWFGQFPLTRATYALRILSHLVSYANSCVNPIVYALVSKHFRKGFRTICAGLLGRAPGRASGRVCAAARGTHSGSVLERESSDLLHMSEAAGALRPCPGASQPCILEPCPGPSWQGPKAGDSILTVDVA
Conditions: cited from earlier work.

Data set [3] relates to formalin-induced paw licking. Briefly: Mouse formalin test. The format is in vivo. The settings on record: for Active at (flat phase II): mouse formalin assay of inflammatory pain. The procedure:
An injection of 0.5% formalin is made into the planter region of a mouse right hind paw. This elicits a distinct biphasic behavioral profile characterized by the mouse licking the affected paw. Immediately following the injection the mouse licks the paw for about 10 minutes. This is phase 1 (acute) and is followed by a brief latent period where there is little behavioral activity. A more prolonged period of about 20 to 30 minutes of paw licking ensues which constitutes phase 2 (inflammatory).
Prior to the administration of the active peptide, drug or vehicle each mouse undergoes a 15-minute conditioning period in one of several 6″ tall plexiglass observation tubes (4″ diameter) that are placed in front of a mirror. […] One hour after treatment, formalin was injected sub-dermally (20 μl; 27 gauge needle) into the plantar surface of the right hind foot. The bevel of the needle is placed facing down toward the skin surface. Following the injection of the formalin each animal is observed for first 2 minutes of each 5 minute epoch for a total of 45 minutes. The cumulative length of licking for each 2 minute time period was measured. An animal receiving the requisite volume of vehicle was alternated with each mouse given GAL-BBB2, Gal 1-16, or gabapentin. Animals were euthanized following the conclusion of the experiment.
Area under the curve (AUC) determination was made using the GraphPad Prism Version 3.03. Total AUC is calculated for both the test and control groups for both the acute and inflammatory phases. The AUC for individual animals for each phase is also calculated and converted to percentage of total AUC of control. The average percentages and SEM for both the drug treated and control were calculated and tested for significant difference.

The test system of another data set is sound-induced seizures. Briefly: Frings audiogenic seizure-susceptible mouse model. The format is in vivo. Conditions: 4 mg/kg i.p., 15-240 min; also higher dose of 12 mg/kg. The procedure: The two modified galanin analogs (GAL-BBB1 and GAL-BBB2) were administered i.p. to a group of Frings audiogenic seizure susceptible mice in a dose of 4 mg/kg. At various times after administration (i.e., 15, 30, 60, 120, and 240 min) each mouse was placed into a cylindrical test chamber fitted with an audio transducer and challenged with a high-intensity sound stimulus (110 dB, 11 KHz for 20 sec). Animals not displaying tonic hind-limb extension were considered protected. […] In a subsequent study, anticonvulsant efficacy was quantitated at the time to peak effect (i.e., 1 h) in a dose-response study.
The ability of individual modified analogs to prevent seizures induced by sound in the AGS-susceptible Frings mouse model can be assessed at the time of peak effect (White et al., 1992). For this test, individual mice are placed into a plexiglass cylinder (diameter, 15 cm; height, 18 cm) fitted with an audio transducer (Model AS-ZC; FET Research and Development, Salt Lake City, Utah), and exposed to a sound stimulus of 110 decibels (11 KHz) delivered for 20 seconds. Sound-induced seizures are characterized by wild running followed by loss of righting reflex with forelimb and hindlimb tonic extension. Mice not displaying hindlimb tonic extension are considered protected.
At various times after administration (i.e., 15, 30, 60, 120, and 240 min) each mouse was placed into a cylindrical test chamber fitted with an audio transducer and challenged with a high-intensity sound stimulus (110 dB, 11 KHz for 20 sec).

With GWTLNSAGYL [Fragment 1-10], the pKd on galanin receptors was 4.60.
As for “(Sar)WTLNSAGYLLGPDKDK(Lys-P)DK (XWTLNSAGYLLGPXXXX; N-terminal Sar; C-terminal (Lys-P)DK; MOD_RES 1 Xaa = MeGly; VARIANT 14, 15, 17 Xaa = D-Lys; MOD_RES 16 Xaa = Lys-palm) [NAX 1205-2]”, in the data set with 6 Hz limbic seizures (4 mg/kg, i.p.), the “% Protection at 1 hour” value is 100%, the “% Protection at 2 hours” value is 50% and the “% Protection at 4 hours” value was 75%. Also, in the data set on 6 Hz limbic seizures (i.p.), the “ED50 in the 6 Hz model” value is on record as 1.2 mg/kg and the “dose in parentheses in Table 14 (ED50)” value amounted to 1.2 mg/kg.
Take `CNCC(=O)N[C@@H](Cc1c[nH]c2ccccc12)C(=O)N[C@H](C(=O)N[C@@H](CC(C)C)C(=O)N[C@@H](CC(N)=O)C(=O)N[C@@H](CO)C(=O)N[C@@H](C)C(=O)NCC(=O)N[C@@H](Cc1ccc(O)cc1)C(=O)N[C@@H](CC(C)C)C(=O)N[C@@H](CC(C)C)C(=O)NCC(=O)N1CCC[C@H]1C(=O)N[C@@H](CCCCN)C(=O)N[C@@H](CCCCN)C(=O)N[C@@H](CCCCN)C(=O)N[C@@H](CCCCN)C(N)=O)[C@@H](C)O` [NAX 1105-2]: the “toxicity (motor impairment)” value in data set [1] is “toxicity (motor impairment); also recorded: toxic”. Besides, in the data set with 6 Hz limbic seizures (4 mg/kg, i.p.), the “% Protection at 1 hour” value came out at 30%, the “% Protection at 2 hours” value worked out at 0% and the “% Protection at 4 hours” value is on record as 0%. Besides, in the data set on 6 Hz limbic seizures (i.p.), the “ED50 in the 6 Hz model” value is reported as 3.8 mg/kg and the “dose in parentheses in Table 14 (ED50)” value came to 3.7 mg/kg.
As for “(Sar)WTLNSAGYLLGPRR(Lys-P)R [NAX 1205-3]”, in the data set on 6 Hz limbic seizures (4 mg/kg, i.p.), the “% Protection at 1 hour” value is recorded as 100%, the “% Protection at 2 hours” value is 75% and the “% Protection at 4 hours” value is reported as 0%.
Take “Lys-Lys-Lys(palm)-Lys-Ahx-DPhe-Cys-Phe-DTrp-Lys-Thr-Cys-Thr-NH2”: the “% Protection at 30 min” value in data set [2] turned out to be 100%.
Still for that read-out and setting: as for “DPhe-Cys-Phe-DTrp-Lys-Thr-Cys-Thr-NH2 [DPhe-Cys-Phe-DTrp-Lys-Thr-Cys-Thr-N2, reference compound]”, the figure is 50%.
Turning to WAGGDFSGE [DSIP, reference compound], in the data set on 6 Hz limbic seizures (administered directly into the ventricular space, 22 mA), the “activity against 6 Hz (22 mA) limbic seizures” value is “effective”. The “% Protection at 30 min” value in data set [2] worked out at 0%.
With `CC(C)C[C@H](NC(=O)[C@H](CC(C)C)NC(=O)[C@H](Cc1ccc(O)cc1)NC(=O)CNC(=O)[C@H](C)NC(=O)[C@H](CO)NC(=O)[C@H](CC(N)=O)NC(=O)[C@H](CC(C)C)NC(=O)[C@@H](NC(=O)[C@H](Cc1c[nH]c2ccccc12)NC(=O)CN)[C@@H](C)O)C(=O)NCC(=O)O` [Fragment 1-12], the pKd on galanin receptors is 5.52.
Turning to `Cc1cc(=O)oc2cc(NC(=O)[C@H](CCCCN)NC(=O)[C@H](CC3CCCCC3)NC(=O)OCC3c4ccccc4-c4ccccc43)ccc12` [Galnon] (Fmoc-[Cha]-Lys-{AMC}), the pKd on hGalR2 (Table 2, reference ligands, same values as Table 18, read-out: affinity toward galanin receptors, GalR2) was 4.62; on hGalR2 (Table 18, compiled from literature, read-out: Affinity, KD hGalR2), 4.62.
Turning to “WTLNSAGYLLGPKK(Lys-P)K (not fully specified (C-terminus)) [NAX 1205-1]”, in the data set on 6 Hz limbic seizures (4 mg/kg, i.p.), the “% Protection at 1 hour” value is reported as 50%, the “% Protection at 2 hours” value came to 50% and the “% Protection at 4 hours” value was 0%. In the data set on 6 Hz limbic seizures (i.p.), the “ED50 in the 6 Hz model” value is 5.7 mg/kg and the “dose in parentheses in Table 14 (ED50)” value was determined as 5.7 mg/kg.
As to (Sar)WTLNSAGYLLGPHA(Lys-P) [306-5], the “% Protection at 1, 2 and 4 hours (result in words)” value in the data set with 6 Hz limbic seizures (4 mg/kg, i.p.) is listed as “Not active”.
In the case of [Ahx]GGWAGGDFSGE, the “% Protection at 30 min” value in data set [2] is given as 50%. In addition, the “% Protection after 2 hours” value in data set [2] (2 hours) was “(100% after”.
For “(Sar)WTLNSAGY(Ahx)KK(Lys-P)K [NAX 306-4]”, in the data set with 6 Hz limbic seizures (4 mg/kg, i.p.), the “% Protection at 1 hour” value is reported as 50%, the “% Protection at 2 hours” value stood at 0% and the “% Protection at 4 hours” value came out at 0%. For the same compound, in the data set with 6 Hz limbic seizures (i.p.), the “ED50 in the 6 Hz model” value was determined as 2.95 mg/kg and the “dose in parentheses in Table 14 (ED50)” value was found to be 2.95 mg/kg. Also, the “activity in second response phase of inflammatory pain assay” value in data set [3] (2.95 mg/kg) is given as “very active”. Moreover, in data set [3], the “Active at (flat phase II)” value is 2.9 mg/kg (“flat phase II”).
On to `CC(C)C[C@H](NC(=O)[C@H](CC(C)C)NC(=O)[C@H](Cc1ccc(O)cc1)NC(=O)CNC(=O)[C@H](C)NC(=O)[C@H](CO)NC(=O)[C@H](CC(N)=O)NC(=O)[C@H](CC(C)C)NC(=O)[C@@H](NC(=O)[C@H](Cc1c[nH]c2ccccc12)NC(=O)CN)[C@@H](C)O)C(=O)NCC(=O)N1CCC[C@H]1C(=O)N[C@@H](Cc1c[nH]cn1)C(=O)O` [Fragment 1-14], for which, on galanin receptors, the pKd is 6.82.
Take GWTLNSAGY [Fragment 1-9]: at galanin receptors, the pKd was 4.00.
Take “Sar-Trp-Thr-Leu-Asn-Ser-Ala-Gly-Tyr-Leu-Leu-Gly-Pro-His-(Lys-palm)-Tle-NH2 [GAL-BBB1]”: the “anticonvulsant activity” value in the data set with sound-induced seizures is “not active at any time point tested”.
As to (Sar)WTLNSAGYKK(Lys-P)K [NAX 306-3], in data set [3], the “Active at (flat phase II)” value was 2.7 mg/kg (“flat phase II”).
Regarding `CCCCCCCCCCCCCCCC(=O)NCCCC[C@H](NC(=O)[C@H](CCCCN)NC(=O)[C@H](CCCCN)NC(=O)[C@H](CCCCN)NC(=O)[C@H](CCCCN)NC(=O)[C@H](CC(C)C)NC(=O)[C@H](CC(C)C)NC(=O)[C@H](Cc1ccc(O)cc1)NC(=O)CNC(=O)[C@H](C)NC(=O)[C@H](CO)NC(=O)[C@H](CC(N)=O)NC(=O)[C@H](CC(C)C)NC(=O)[C@@H](NC(=O)[C@H](Cc1c[nH]c2ccccc12)NC(=O)CNC)[C@@H](C)O)C(=O)N[C@@H](CCCCN)C(N)=O` [NAX 1205-4] (H-[Sar]WTLNSAGYLLKKKKK(Palmitoyl)K-NH2), the “toxicity (motor impairment)” value in data set [1] was “toxic”.
As for `CC[C@@H](C(N)=O)N1CCCC1=O` [Levetiracetam, reference compound], the “maximum protection against 6 Hz limbic seizures” value in the data set on 6 Hz limbic seizures (6 Hz (44 mA), 1000 mg/kg, alone) is at most 50%.
